Laboratory results from ChEMBL document CHEMBL1134165, “Anthraquinone-peptides as inhibitors of AP-1 transcription factor” (Bioorg Med Chem Lett, 2001).

Tests used:
Type in all cases: nucleic-acid assay
Settings in all cases: Bos taurus
[1] = test system: Nucleic Acid; test: Delta Tm is the difference between the melting temperature of calf thymus DNA in the presence and absence of 2-peptide conjugate at a 10:1 ratio of DNA/drug
[2] = test system: Nucleic Acid; test: Percent maximum loss of ethidium bromide (EtBr) fluorescence bound to DNA (ratio 1:3) in presence of 2-peptide conjugate
[3] = test system: Nucleic Acid; test: Delta Tm is the difference between the melting temperature of calf thymus DNA in the presence and absence of 2-peptide conjugate at a 10:1ratio of DNA/drug

Substance	ΔTm [1]	Quench [2] [%]	ΔTm [3]
H-AKCRDA-OH	5.5	5	
H-ARCKA-OH			4.8
H-AKCRDRA-OH	10.3		
H-AKCRKRA-OH	9	45	
H-AKCRKA-OH	7.3		

Next, values leading:

ΔTm [1]	Quench [2] [%]	ΔTm [3]	Substance
6			H-AAKCRAA-OH
7.5			H-AKCRA-OH
5.5			H-AKSRA-OH
